These results are taken from publication PMC9953967, “Discovery of Novel Bioactive Tanshinones and Carnosol Analogues against Breast Cancer” (Cancers, 2023).

Broadly, the EC50 is the concentration needed to bring the measured effect to its halfway point. One may read the GI50 as the concentration that inhibits growth by half.

Each structure is given as a SMILES string. Where two headings read alike, the source gives them in different places.

The test system of data set [1] is T47D. Briefly: CellTiterGlo luminescent cell viability assay, T47D. The settings on record: Homo sapiens, 72 h. (In general: ATP-based viability assays read luminescence as a measure of living cells.)
Procedure: (§1) A cell proliferation assay was performed using the CellTiterGlo (CTG, Promega Corp., Madison, WI, USA) luminescent cell viability assay kit. MDA-MB231 cells were seeded into 96-well plates at concentrations experimentally determined to ensure logarithmic growth during the duration of the experiment and to prevent adverse effects on cell growth by DMSO exposure. The plates were incubated 12 h before treatment. […] The final concentration of DMSO was 0.3% (v/v) in each well. The positive control used was staurosporine (1 μM) and a toxic quinolone generated inhouse, as kill-all controls, and the negative control used was cholesterol. […] The plates were incubated for 72 h and then quenched with CTG at 50 μL per well at RT. Plates were then incubated at RT for 20 min and centrifuged at 1000 rpm for 1 min. Luminescence was read on a CLARIOstar Plus plate reader (BMG LabTech, Ortenberg, Germany). The cell viability assay was also performed in the non-neoplastic cell line BJ, which was incubated with compounds, as mentioned in cell viability assay (CTG). The mean luminescence of each experimental treatment group was normalized as a percentage of the mean intensity of untreated controls. EC50 values were calculated from dose-response curve-fitting via non-linear regression using GraphPad Prism 9.0 (GraphPad Software, San Diego, CA, USA) (Figure S1).
Data set [2] can be described thus: CellTiterGlo cell viability assay, non-neoplastic cell line BJ. The settings on record: human, BJ cells (non-neoplastic, non-tumorigenic cell line), Cytotoxicity IC50 BJ, 72 h incubation, CellTiter-Glo, mean ± SD.
Procedure: as §1
Data set [3] relates to MDA-MB231. Also noted: method as in PMID 26241873. The conditions noted are these: cited from earlier work.
In data set [4] the test system is MDA-MB231. Put plainly: CellTiterGlo luminescent cell viability assay, MDA-MB231.
Procedure: as §1
Data set [5] relates to several cell models of breast cancer. Also noted: method as in PMID 26241873. The conditions noted are these: read-out: EC50 antiproliferative activity; cited from earlier work.
Data set [6] concerns MCF07. Briefly: CellTiterGlo luminescent cell viability assay, MCF07.
Procedure: as §1
Data set [7] deals with SUM149. Put plainly: CellTiterGlo luminescent cell viability assay, SUM149.
Procedure: as §1
A further data set can be described thus: in vitro. The settings on record: human, Cytotoxicity IC50 BJ.
A further data set deals with HBL-100 and T-47D. Set-up: method as in PMID 30840453. The settings on record: two breast cancer cell lines HBL-100 and T-47D, SRB assay; cited from earlier work. On the technique in general: In SRB staining, fixed cells bind dye roughly in proportion to their protein.
For data set [8], the system named is MDA-MB231. Also noted: method as in PMID 30793595. The conditions noted are these: read-out: Antiproliferative activity, sulforhodamine B assay, MDA-MB231; cited from earlier work.
Another data set relates to MCF-7. Also noted: method as in PMID 30793595. The settings on record: read-out: Antiproliferative activity, sulforhodamine B assay, MCF-7; cited from earlier work.
Data set [9] concerns non-tumorigenic cell line BJ. Put plainly: CellTiterGlo cell viability assay, non-neoplastic cell line BJ. The settings on record: read-out: Cytotoxicity IC50 BJ, 72 h incubation, CellTiter-Glo, mean ± SD.
Procedure: as §1
Data set [10] can be described thus: Ferric Reducing Antioxidant Power (FRAP) assay. The conditions noted are these: compounds at 100 μM; positive control ascorbic acid 1 mM. On the procedure:
An antioxidant evaluation of the compounds was performed using the Ferric Reducing Antioxidant Power (FRAP) Assay Colorimetric Kit (ab234626, Abcam, Cambridge, UK) following the manufacturers’ instructions. Briefly, FRAP reagents were mixed with compounds at 100 μM in 96-well plates, and then reacted for 10 min at 37 °C in the dark. Ascorbic acid was provided as the positive control (1mM). After incubation, the absorbance was read using a microplate reader (CLARIOstar Plus, BMG LabTech, Ortenberg, Germany) at 594 nm. FRAP [19] was quantified using a reagent calibration curve (Y = 0.039X + 0.002, R^2 = 0.9978) and calculated as nmol Ferrous equivalents.

For data set [11], the system named is MDA-MB231. Briefly: Propidium iodide (PI) assay with Hoechst counterstain. The format is cell-based, human. The conditions noted are these: MDA-MB231, 48 h, 25 μM. On the procedure: Propidium iodide (PI) assay was performed to complement the viability assay. The assay was conducted with MDA-MB231 cancer cell models seeded in 48-well plates (Clear, Corning#3548) and cultured for 12 h, then treated for 48 h. Cells were fixed with cold methanol, and stained (0.4% PI, Sigma-Aldrich, Co., St. Louis, MO, USA). Fluorescence was measured and analyzed using Cytation 1 Image Reader (BioTek, Winooski, VT, USA). Cell viability was calculated/plotted as the percentage of surviving cells after treatment relative to the vehicle. For qualitative analysis and visualization, doubling staining was performed using Hoechst dye to stain nuclei.

The test system of data set [12] is SUM149.
Procedure: as §1
Data set [13] relates to MCF07.
Procedure: as §1
Data set [14] relates to non-tumorigenic cell line BJ. The settings on record: human, 72 h.
Procedure: as §1
The subject of data set [15] is T47D. The settings on record: human, 72 h.
Procedure: as §1
The mark [16] stands for this setting: read-out: Cytotoxicity IC50 T47D, 72 h incubation, CellTiter-Glo, mean ± SD.
Where [17] appears, read: Homo sapiens, MDA-MB-231, 72 h, read-out: Cytotoxicity IC50 MDA-MB231, 72 h incubation, CellTiter-Glo, mean ± SD.
Setting [18] is: Homo sapiens, 72 h, read-out: Cytotoxicity IC50 MCF07, 72 h incubation, CellTiter-Glo, mean ± SD.
The mark [19] stands for this setting: Homo sapiens, SUM149, 72 h, read-out: Cytotoxicity IC50 SUM149.
[20] abbreviates: read-out: Cytotoxicity IC50 MDA-MB231, 72 h incubation, CellTiter-Glo, mean ± SD.

Procedure for in vitro: as §1

Take `CC(C)c1cc2c(cc1O)[C@@]1(C)CCCC(C)(C)[C@@H]1CC2` [Compound 1, ferruginol]: the IC50 in the data set with T47D [1] (setting [16]) was more than 100 µM; in the data set with MDA-MB231 [4] (setting [17]), 8.3 ± 1.4 µM; with MCF07 [6] (setting [18]), 19 ± 1.5 µM; in the data set on SUM149 [7] (setting [19]) it was more than 50 µM. The IC50 at 72 h in data set [2] was more than 50 µM. The “Inhibition of cell cycle progression at the G2/M phase” value with MDA-MB231 [3] was 19%. In the data set with MDA-MB231 [3] (positive control 43%, negative control 48.36%), the “Cell cycle arrest at G0/G1” value is recorded as 50.76%. Besides, in data set [5], the EC50 is less than 50 µM.
`CC(C)c1cc2c(cc1O)[C@@]1(C)CCC[C@@](C)(CN)[C@@H]1CC2` [Compound 2, 12-hydroxydehydroabietylamine] gave an IC50 at 72 h in “in vitro” of 75 ± 6.2 µM. Also, the IC50 was more than 50 µM in the data set on T47D [1] (setting [16]), 5.1 ± 0.6 µM in the data set with MDA-MB231 [4] (setting [17]), 10 ± 1.5 µM with MCF07 [6] (setting [18]) and 4.4 ± 0.3 µM in the data set on SUM149 [7] (setting [19]).
For the molecule `CC(C)c1cc2c(c(O)c1O)[C@@]13CCCC(C)(C)[C@@H]1C[C@@H]2OC3=O` [Compound 4, carnosol], the EC50 in data set [5] was less than 50 µM.
For the molecule `COC(=O)[C@]1(C)CCC[C@]2(C)c3cc(O)c(C(C)C)cc3CC[C@@H]12` [Compound 5, Methyl 12-hydroxyabieta-8,11,13-trien-18-oate], in the data set on HBL-100 and T-47D, the GI50 was 9.7 to 19 µM. Besides, the IC50 was 18.6 µM in the data set on MDA-MB231 [8] and 5.9 µM with MCF-7.
Consider `CC(C)c1cc2c(cc1O)[C@@]1(C)CCC[C@@](C)(CN3C(=O)c4ccccc4C3=O)[C@@H]1CC2` [Compound 6, 18-(phthalimid-2-yl)ferruginol], for which the IC50 is 29.2 ± 1.5 µM with T47D [1] (read-out: Cytotoxicity IC50 T47D); 74.8 ± 5.3 µM in [9]; 8.22 ± 0.47 µM with MDA-MB231 [4] (setting [17]); 8.2 ± 0.5 µM with MDA-MB231 [4] (setting [20]); 13 ± 0.6 µM in the data set on MCF07 [6] (Homo sapiens, 72 h, read-out: Cytotoxicity IC50 MCF07); 4.45 ± 0.2 µM in the data set with SUM149 [7] (Homo sapiens, SUM149, 72 h, read-out: Cytotoxicity IC50 SUM149, 72 h incubation, CellTiter-Glo, mean ± SD). Also, the IC50 in the data set on SUM149 [7] (read-out: Cytotoxicity IC50 SUM149, 72 h incubation, CellTiter-Glo, mean ± SD) was 4.4 ± 0.2 µM. Further, the IC50 at 72 h in [2] stood at 74.8 ± 5.3 µM.
Take `COC(=O)[C@]1(C)CCC[C@]2(C)C3=C(C=C(C(C)C)C(=O)C3=O)CC[C@@H]12` [Compound 7, Methyl 11,12-Dioxo-abieta-8,13-dien-18-oate]: the IC50 is 14.1 ± 0.5 µM with T47D [1] (setting [16]); 56.5 ± 6.1 µM in data set [9]; 3.95 ± 0.8 µM in the data set on MDA-MB231 [4] (setting [17]); 3.9 ± 0.8 µM in the data set with MDA-MB231 [4] (setting [20]); 8.29 ± 0.93 µM in the data set on MCF07 [6] (setting [18]); 8.3 ± 0.9 µM in the data set on MCF07 [6] (read-out: Cytotoxicity IC50 MCF07, 72 h incubation, CellTiter-Glo, mean ± SD). In addition, the IC50 with SUM149 [7] (setting [19]) was determined as 1.3 ± 0.6 µM. Moreover, in data set [2], the IC50 at 72 h was 56.5 ± 6.1 µM. Besides, the “Antioxidant potential (FRAP)” value in [10] is recorded as “significant antioxidant potential”.
Take `CC(C)C1=CC2=C(C(=O)C1=O)[C@@]1(C)CCC[C@@](C)(CN3C(=O)c4ccccc4C3=O)[C@@H]1CC2` [Compound 8, 11,12-Dioxo-N,N-(phthaloyl)dehydroabietylamine]: the IC50 was 18.7 ± 0.3 µM with T47D [1] (setting [16]); 35.4 ± 5 µM in data set [9]; 2.8 ± 0.4 µM with MDA-MB231 [4] (setting [17]); 2.3 ± 1.1 µM in the data set on MCF07 [6] (setting [18]); 1.5 ± 0.4 µM with SUM149 [7] (setting [19]). In addition, the IC50 at 72 h in data set [2] was determined as 35.4 ± 5 µM. Moreover, the “Dose-dependent cell death (PI staining)” value in the data set with MDA-MB231 [11] was “clearly indicates this dependency”.
In the case of `COC(=O)[C@]1(C)CCC[C@]2(C)c3c(cc(C(C)C)c(O)c3O)CC[C@@H]12` [Compound 9, Methyl 11,12-Dihydroxy-dehydroabietate], the IC50 at 72 h in the data set “in vitro” was determined as 57.6 ± 3 µM. The IC50 is 14.4 ± 0.6 µM with T47D [1] (setting [16]); 9.4 ± 0.4 µM in the data set on MDA-MB231 [4] (setting [17]); 2.7 µM with MDA-MB231 [8]; 57.6 ± 3 µM in data set [14]; more than 50 µM in the data set on MCF07 [6] (setting [18]); 2.8 µM with MCF-7. Further, the IC50 in the data set on SUM149 [7] (setting [19]) was more than 50 µM. Also, in data set [10], the “Antioxidant potential (FRAP)” value is given as “significant antioxidant potential”. Moreover, the “Cytotoxicity IC50 SUM149” value in the data set with SUM149 [12] is “removed the activity”. Further, the “Cytotoxicity IC50 MCF07” value with MCF07 [13] is on record as “removed the activity”.
Regarding `CC(C)c1cc2c(c(O)c1O)[C@@]1(C)CCC[C@@](C)(CN3C(=O)c4ccccc4C3=O)[C@@H]1CC2` [Compound 10, 11,12-Dihydroxy-N,N-(phthaloyl)dehydroabietylamine], the IC50 was 8.2 ± 0.4 µM in the data set with T47D [15]; 8.17 ± 0.44 µM in the data set on T47D [1] (setting [16]); 2.8 ± 0.2 µM with MDA-MB231 [4] (setting [17]); 32.5 ± 5 µM in data set [14]; 4.6 ± 0.6 µM with MCF07 [6] (setting [18]); 1.8 ± 0.2 µM in the data set with SUM149 [7] (setting [19]). This molecule had an IC50 at 72 h in “in vitro” of 32.5 ± 5 µM.
Consider `CC(C)c1ccc2c(c1)CC[C@H]1[C@](C)(CN)CCC[C@]21C` [dehydroabietylamine], for which the EC50 in data set [5] is less than 50 µM.
